Where two headings read alike, the source gives them in different places. Each block holds one compound with its values, some of them ahead of it.
Experiments:
[1] = HPLC assay of Dox release from DMA prodrugs 2/4/6 at different pH values; format: physicochemical; conditions: 37° C., pH 7.4, 10 h
Protocol: The pH-dependence of drug release from Dox-DMA prodrugs as followed in HPLC assays. To test the pH-sensitivity of drug release, solutions of a DMA prodrug were adjusted to have pH values between 6.0 and 7.4. […] The HPLC rans were carried out with pH 8 solvents so that the DMA prodrug would not decompose during the HPLC analysis. Areas under the peaks were integrated to give the percentages.
The pH of the DMA prodrug solution was adjusted to different pH values in the range of pH 7.4-6.0. […] Representative HPLC traces are shown in ESI FIGS. S24-S29 (see these figures and their captions for more detailed information).

ES2 cells = assay: Imaging studies (confocal microscopy); format: cell-based, human
Protocol: Afterwards, the treatment solution was removed; the nuclei of the cells were labeled with staining dye Hoechst 33342; and then images were taken on a scanning confocal microscope.
Imaging studies (confocal microscopy). Approximately 8,000 ES2 cells were seeded on a colIagen-coated glass dish (MatTek Corporation, part No. P35GCOL-0-10-C) and cultured in McCoy's 5A medium with 10% fetal bovine serum and 1% penicillin-streptomycin at 37° C. in the incubator (5% CO2) overnight. […] After treatment solution was removed, the cells were washed 1× with 100 μL of DMEM/F12 pH-specific media. Prior to fluorescence imaging, the nuclei of cells were stained with 1 μg/mL Hoechst 33342 in PBS for 20 min at 37° C. in the incubator. Afterwards, cells stayed in pH-specific DMEM/F12 media during imaging. […] The images in FIGS. 33-36 were processed using LAS X and ImageJ.

[2] = tested on: SKOV3 human ovarian cancer cells; conditions: FIG. 9A, 10 μM
Protocol: (§1) pH-dependent anti-proliferation assays with cells. In 96-well plates, ˜3,000 cells were seeded per well then grown for 24-48 hr until 30-40% confluency. […] For serum effect cell plate data shown in FIG. 5I, cell viability was measured using alamar Blue assay (i.e., growth media was replaced with 45 μL of pH 7.4 DMEM/F-12 media without phenol red, 5 μL of alamar Blue reagent (10×) was added; fluorescence at 590 nm was recorded after excitation at 560 nm at 1 hr afterwards).
(§2) The reaction solution was allowed to stand at rt for 1 hr in the dark, during which the pH decreased to ˜9.6. After 1 hr, the reaction solution was split into two 50-μL portions (for pH 7.4 vs. pH 6.2-6.8 cell experiments). The pH of one portion was adjusted to pH 8 (for pH 7.4 cell experiments) or pH 7 (for pH 6.2-6.8 cell experiments). Subsequently, the solution was diluted 30-fold (to 10 μM) with pH 7.4 or pH 6.2-6.8 cell media (final volume 1.5 mL) and then filtered (0.2 micron) before used in cell experiments.

[3] = tested on: PC-3 human prostate cancer cells; conditions: FIG. 9B, PC3, […], 10 μM
Protocol: as §1, §2

[4] = tested on: ES-2 human ovarian cancer cells; assay: pH-dependent anti-proliferation assay (MTS; alamar Blue for FIG. 7I); conditions: for Cell Viability Average (Avg): FIG. 7A, ES-2, 6 hr
From the text: pH-dependent anti-proliferation assays with cells.
NaOH to adjust the pH to 9.9.

ES2 ovarian cancer cells = assay: Antiproliferation assays against ES2 cancer cells at different pH values; format: cell-based, human
Protocol: For cell experiments, a pH 8 or pH 10 (directly from DMI to DMA conversion) solution of DMA 2/4/6 was sterilized by filtering through a 0.2-micron membrane. […] At this point, small amounts of 10 (or 25) mM of sterile aq.
Antiproliferation assays against ES2 cancer cells at different pH values. […] Treatment solution volume was 50-100 μL per well, with a set volume per well for all wells in a plate.

[5] = tested on: MDA-MB-231 human breast cancer cells
Protocol: as §1, §2

[6] = tested on: NIH:OVCAR3 human ovarian cancer cells
Protocol: as §1, §2

DMI formed [1]: about 13%
Compound: COc1cccc2c1C(=O)c1c(O)c3c(c(O)c1C2=O)C[C@@](O)(C(=O)CO)C[C@@H]3O[C@H]1C[C@H](N2C(=O)C(C)=C(CCC(=O)O)C2=O)[C@H](O)[C@H](C)O1 [Dox-DMI 1]
Dox channel signal among the DMI byproducts (ES2 cells; ES2, 8 μM, 1 h): more signals
Dox fluorescence signals in cells, pH 6.7 vs. 7.7 (ES2 cells; ES2, 1 h, 4 μM Dox or 8 μM prodrug/DMI): higher at pH 6.7 than 7.7

DMI formed [1]: 26%
Compound: COc1cccc2c1C(=O)c1c(O)c3c(c(O)c1C2=O)C[C@@](O)(C(=O)CO)C[C@@H]3O[C@H]1C[C@H](N2C(=O)C(C)=C(CCC(=O)NCCSSC[C@H](N)C(=O)O)C2=O)[C@H](O)[C@H](C)O1 [Dox-DMI-Cys 5]

Compound: COc1cccc2c1C(=O)c1c(O)c3c(c(O)c1C2=O)C[C@@](O)(C(=O)CO)C[C@@H]3O[C@H]1C[C@H](N2C(=O)C(C)=C(CCC(=O)NCCSSC[C@H](NC(=O)CC[C@H](N)C(=O)O)C(=O)NCC(=O)O)C2=O)[C@H](O)[C@H](C)O1 [Dox-DMI-GSH 7, Doxorubicin Disubstituted Maleimide Glutathione Conjugate]
Cell Viability Avg ([2]; pH 6.3-6.5): 75%
Cell Viability Avg ([2]; pH 7.5-7.6): 63%
Cell Viability Avg ([3]; pH 6.3-6.4): 90%
Cell Viability Avg ([3]; pH 7.5-7.6): 84%
toxicity compared to DMA 8 ([4]; ES-2, 6 h (FIG. 7A)): much less toxicity
Cell Viability Average (Avg) ([4]; 0.5 μM, pH 6.6-6.8): 90%
Cell Viability Average (Avg) ([4]; 0.5 μM, pH 7.2-7.5): 97%
Cell Viability Average (Avg) ([4]; 1 μM, pH 6.6-6.8): 79%
Cell Viability Average (Avg) ([4]; 1 μM, pH 7.2-7.5): 80%

DMI formed [1]: 26%
Compound: COc1cccc2c1C(=O)c1c(O)c3c(c(O)c1C2=O)C[C@@](O)(C(=O)CO)C[C@@H]3O[C@H]1C[C@H](N2C(=O)C(C)=C(CCC(=O)N[C@@H](CCC(=O)O)C(=O)O)C2=O)[C@H](O)[C@H](C)O1 [Dox-DMI-Glu 3]

Compound: CC1=C(CCC(=O)O)C(=O)OC1=O [anhydride 7, 2-propionic-3-methylmaleic anhydride]
cytotoxicity of anhydride byproduct of drug release (ES2 ovarian cancer cells; FIG. 29D, ES2, 2, 20 or 200 μM, pH 6.7-6.8 or 7.5-7.6, 2 h): harmless to cells
cytotoxicity of anhydride byproduct of drug release (ES2 ovarian cancer cells; FIG. 29D, ES2, 2, 20 or 200 μM, pH 6.7-6.8 or 7.5-7.6, 2 h, listed as anhydride byproduct 7): not cytotoxic

Compound: CC1=C(CCC(=O)N[C@@H](CCC(=O)O)C(=O)O)C(=O)OC1=O [byproduct 10, (3-(4-methyl-2,5-dioxo-2,5-dihydrofuran-3-yl)propanoyl)glutamic acid]
cytotoxicity of anhydride byproduct of drug release (ES2 ovarian cancer cells; FIG. 30D, ES2, 3, 30 or 300 μM, pH 6.5-6.6 or 7.4-7.5, 3 h): not cytotoxic

Compound: CC1=C(CCC(=O)NCCSSC[C@H](N)C(=O)O)C(=O)OC1=O [byproduct 12]
cytotoxicity of anhydride byproduct of drug release (ES2 ovarian cancer cells; FIG. 31D, ES2, 2, 20 or 200 μM, pH 6.7 or 7.4-7.5, 2 h): did not show any cytotoxicity
cytotoxicity of anhydride byproduct of drug release (ES2 ovarian cancer cells; FIG. 31D, ES2, 2, 20 or 200 μM, pH 6.7 or 7.4-7.5, 2 h, listed as anhydride 12): no cytotoxic effect
cytotoxicity of anhydride byproduct of drug release (ES2 ovarian cancer cells; FIG. 31D, ES2, 2, 20 or 200 μM, pH 6.7 or 7.4-7.5, 2 h, listed as anhydride byproduct 12): not cytotoxic

Compound: Doxorubicin Disubstituted Maleamic Acid Glutathione Conjugate [Dox-DMA-GSH 8]
higher potency than the free drug (3 μM) ([5]; MDA-MB231, 2-3 h, 6-8 μM prodrug, pHe 6.3-6.4): 2-3 ×
pHe at which maximum effects were seen ([5]; MDA-MB231, pHe titration (FIG. 7F)): 6.5
fold more potent at pHe 6.7 (than at pHe 7.4) ([4]; ES-2, 6 h): ~2 fold
potency of 1 mM of prodrug compared to 0.5 mM of free Dox ([4]; ES-2, 6 h, pHe 6.7): more potent
pHe at which the maximum effect was reached ([4]; ES-2, pHe titration (FIG. 7E)): 6.8
higher potency than the free drug (3 μM) ([6]; OVCAR3, 2-3 h, 6-8 μM prodrug, pHe 6.3-6.4): 2-3 ×
pHe at which maximum effects were seen ([6]; OVCAR3, pHe titration (FIG. 7G)): 6.5
